Laboratory results published in ChEMBL document CHEMBL5729415, “Compounds for treatment of PD-L1 diseases” (2022).

Target: Programmed cell death 1 ligand 1 (Homo sapiens, UniProt Q9NZQ7)
Test: Enzyme-Linked Immunosorbent Assay—ELISA: 96 Well plates were coated with 1 μg/mL of human PD-L1 (obtained from R&D) in PBS overnight at 4′° C. The wells were then blocked with 2% BSA in PBS (W/V) with 0.05% TWEEN-20 for 1 hour at 37′° C. The plates were washed 3 times with PBS/0.05% TWEEN-20 and the compounds were serial diluted (1:5) in dilution medium and added to the ELISA plates. Human PD-1 and biotin 0.3 μg/mL (ACRO Biosystems) were added and incubated for 1 hour at 37° C. then washed 3 times with PBS/0.05% TWEEN-20. A second block was performed with 2% BSA in PBS (WNV)/0.05% TWEEN-20 for 10 min at 37° C. and the plates were washed 3 times with PBS/0.05% TWEEN-20. Streptavidin-HIRP was added for 1 hour at 37° C. then the plates were washed 3 times with PBS/0.05% TWEEN-20. TMB substrate was added and reacted for 20 min at 37° C. A stop solution (2 N aqueous H2SO4) was added.

Chain of Programmed cell death 1 ligand 1 (Q9NZQ7 whole entry): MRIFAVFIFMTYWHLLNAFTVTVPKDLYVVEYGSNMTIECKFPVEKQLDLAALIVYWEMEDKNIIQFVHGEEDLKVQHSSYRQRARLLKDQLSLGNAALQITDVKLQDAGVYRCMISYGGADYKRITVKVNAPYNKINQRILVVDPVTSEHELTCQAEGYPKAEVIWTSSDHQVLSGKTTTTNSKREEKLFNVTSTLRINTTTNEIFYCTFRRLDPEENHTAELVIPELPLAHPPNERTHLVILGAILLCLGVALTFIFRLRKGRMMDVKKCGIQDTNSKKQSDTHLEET

How did the IC50 turn out when `COc1cc(OC)c(F)c(-c2cccc(-c3cc(F)c(CN)c(OC)c3)c2C)c1F` was run?
The IC50 was less than 1 µM.

With `COc1cc(-c2cccc(-c3ccc4c(c3)OC(CN)CO4)c2C)cc(F)c1CN` (centres undefined) as the compound, how does the IC50 read?
The IC50 was less than 1 µM.

How did the IC50 turn out when `COC(=O)c1ccc(-c2cccc(-c3cccc(-c4cc(F)c(CN)c(OC)c4)c3C)c2C)cc1OC` was run?
Its IC50 is less than 1 µM.

Which IC50 does the source give for `COc1cccc(-c2cccc(-c3cc(F)c(CN)c(OC)c3)c2C)c1F` here?
Its IC50 is less than 1 µM.

For `COc1cc(-c2cccc(-c3ccc4c(c3F)OCCO4)c2C)cc(F)c1CN`, which IC50 is on record?
The IC50 was less than 1 µM.

For `COc1ccc(F)c(-c2cccc(-c3cc(F)c(CN)c(OC)c3)c2C)c1F`, which IC50 is on record?
The IC50 was less than 1 µM.

How did the IC50 turn out when `COc1cc(-c2cccc(-c3ccc4c(c3C)OCCO4)c2C)cc(F)c1CN` was run?
The IC50 was less than 1 µM.

How did the IC50 turn out when `COc1cc(F)cc(-c2cccc(-c3cc(F)c(CN)c(OC)c3)c2C)c1` was run?
Its IC50 is less than 1 µM.

For `COc1cc(-c2cccc(-c3ccc4nc[nH]c(=O)c4c3)c2C)cc(F)c1CN`, which IC50 is on record?
The IC50 was less than 1 µM.

Which IC50 does the source give for `COc1cc(-c2cccc(-c3cccc(-c4cc(F)c(CN)c(OC)c4)c3C)c2C)cc(F)c1CN` here?
Its IC50 is less than 1 µM.

For `Cc1c(-c2ccc(CN)cc2)cccc1-c1cccc(-c2ccc(CN)cc2)c1C`, which IC50 is on record?
Its IC50 is less than 1 µM.

Which IC50 does the source give for `COc1cccc(-c2cccc(-c3cc(F)c(CN)c(OC)c3)c2C)c1C` here?
Its IC50 is less than 1 µM.

With `COc1cc(-c2cccc(-c3cccc(C)c3F)c2C)cc(F)c1CN` as the compound, how does the IC50 read?
Its IC50 is less than 1 µM.

For `COc1cc(-c2cccc(-c3cccc(-c4ccc(CN)cc4)c3C)c2C)cc(F)c1CN`, which IC50 is on record?
Its IC50 is less than 1 µM.

How did the IC50 turn out when `COc1cc(-c2cccc(-c3cccc(-c4cc(F)c(CN)c(OC)c4)c3C)c2C)ccc1CC(N)=O` was run?
The IC50 was less than 1 µM.

`COc1cc(-c2cccc(-c3ccc4c(c3)NC(=O)CO4)c2C)cc(F)c1CN` was tested. Which IC50 did it give?
Its IC50 is less than 1 µM.

With `COc1cc(-c2cccc(-c3ccc4c(c3)OCCO4)c2C)cc(F)c1CN` as the compound, how does the IC50 read?
Its IC50 is less than 1 µM.

`COc1cc(-c2cccc(-c3cccc(C)c3)c2C)cc(F)c1CN` was tested. Which IC50 did it give?
The IC50 was less than 1 µM.

Which IC50 does the source give for `COc1cccc(-c2cccc(-c3cc(F)c(CN)c(OC)c3)c2C)c1` here?
Its IC50 is less than 1 µM.
